Source: patent US20120190586A1, “Synthetic Receptors for Identification of Protein Posttranslation Modifications” (priority 2009, published 2012)
pKd: −log10 of the molar value. Read-outs that look alike come from different tables or passages of the source.

Tests used:
[1] = molecular target: T1, H3 tail, Lys9 mutated to Gly (Homo sapiens, UniProt P68431, K10G); test: Binding to H3 tail with Lys9 mutated to Gly
T1 construct: A mutant H3 tail with Gly in place of Arg8; made in house; host or cells: solid-phase chemical peptide synthesis

Ac-KMe3-G-NH2 = test: Amplification in biased A2B dynamic combinatorial library (LC-MS); details: biased library A:B 2:1, 7.5 mM total; Ac-KMe3-G-NH2 template
Experimental: Using a biased library in which building blocks A and B were mixed in a 2:1 ratio (7.5 mM total), the selectivity of the receptors for different methylation states of lysine was investigated, using Ac—KMen-G-NH2 as the guests (n=0-3). A diverse library was generated in the absence of a template, with A2 and A2B3 as the dominant species and rac-A2B and meso-A2B constituting only 2.4% and 1.1% of the total library composition respectively.
Dynamic Combinatorial Chemistry. The relevant building blocks were individually dissolved in water, adding sufficient 1.0 M aqueous NaOH to fully deprotonate the thiols and carboxylic acids on the building blocks, using sonication when necessary. The pH of each solution was then adjusted to 8.5 using 1.0 M aqueous HCl and 1.0 M aqueous NaOH. […] The vials were capped and analyzed at various time points.
Analytical LC-MS. […] Mass spectra (ESI+) were acquired in ultrascan mode by using a drying temperature of 350° C., a nebulizer pressure of 45 psi, a drying gas flow of 10 L/min, and a capillary voltage of 3000 V. The reactions were monitored weekly (3 μL injections) until equilibrium was reached after about 3 weeks. […] The peak areas were integrated at 254 nm and the amplification factors were calculated (A.F.=% area of A2B in templated DCL/% area of A2B in untemplated DCL).

[2] = molecular target: T2, WGGG-GKMe3 (Histone 3 peptide, Gly8) (Homo sapiens, UniProt P68431, R9G); test: Isothermal titration calorimetry, peptide titrated into A2B; assay type: binding
T2 construct: made in house; host or cells: solid-phase chemical peptide synthesis
Experimental: FIG. 12. Histone 3 peptide (WGGG-GKMe3) used as the titrant in ITC experiments to confirm A2B binding to KMe3.
Isothermal Titration calorimetry. Isothermal titration calorimetry measurements were conducted using an ITC200 from MicroCal, LLC to verify the binding data obtained by fluorescence anisotropy. A single 0.2 μL aliquot followed by 38 aliquots of 1 μL were titrated into the calorimetric cell every 2.5 minutes. The titrant used to determine the binding to KMe3 was a 2.0 mM solution of the H3 tail peptide in FIG. 12 (in 10 mM phosphate buffer, pH 8.5), containing a Trp for concentration determination and separated from the natural sequence by 3 glycine spacers. This peptide also contained Gly8 as opposed to Arg8 which is found in the native sequence. It has been shown that this mutation has minimal affect on the overall binding affinity. The cell was filled with a 0.2 mM solution of either rac- or meso-A2B (in 10 mM phosphate buffer, pH 8.5). All measurements were carried out at 26° C.

[3] = molecular target: T3, H3 K9Me2 (FAM-QTAR-KMe2-STG-NH2) (Homo sapiens, UniProt P68431); test: Fluorescence anisotropy binding of A2B receptors to FAM-labeled histone 3 peptide; details: 27° C., 10 mM phosphate buffer pH 8.5; errors in parentheses
T3 construct: peptide consisting of residues 5-11 of histone 3 (H3 K9Men); made in house; host or cells: solid-phase chemical peptide synthesis
Experimental: (§1) Fluorescence anisotropy was used to measure the dissociation constant of rac- and meso-A2B to a peptide consisting of residues 5-11 of histone 3 (H3 K9Men), with each of the methylation states at Lys 9 as well as an N-terminal carboxyfluorescein (FAM) for fluorescence detection. Binding affinities for H3 K9Me3 were also confirmed by ITC (see below).
(§2) H3 K9Men: FAM-QTAR-KMen-STG-NH2, n=0-3
(§3) Fluorescence Anisotropy. Binding assays were performed with purified rac- or meso-A2B and fluorescein labeled histone 3 peptides. Assays were prepared in 384-well plates (Corning) with a total volume of 50 μL per well, containing 20 μM labeled peptide and increasing concentrations of A2B in buffer (10 mM phosphate pH 8.5). Plates were spun down and allowed to incubate for at least 30 minutes before analysis. Fluorescence anisotropy was measured on a PHERAstar (BMG Labtech) using FP485, 520A, and 520B filters at 27° C. The anisotropy data was plotted as a function A2B concentration and each plot was fitted in KaleidaGraph to the following equation (Wang, Y.; Killian, J.; Hamasaki, K.; Rando, R. R. Biochemistry 1996, 35, 12338-12346):
(§4) where r is fluorescence anisotropy, ro is the initial anisotropy value, r∞ is the maximum anisotropy value, a is the peptide concentration, x is the concentration of A2B, and kd is the dissociation constant. All measurements were taken in duplicate or triplicate.

[4] = molecular target: T4, H3 K9Me3 (FAM-QTAR-KMe3-STG-NH2) (Homo sapiens, UniProt P68431); test: as above; details: for pKd: 27° C., 10 mM phosphate buffer pH 8.5, errors in parentheses; for Affinity for H3 K9Me3 peptide (in words): fluorescence anisotropy
T4 construct: peptide consisting of residues 5-11 of histone 3 (H3 K9Men); made in house; host or cells: solid-phase chemical peptide synthesis
Experimental: as §1, §2, §3, §4

[5] = molecular target: T5, H3 K9 (unmethylated, FAM-QTAR-K-STG-NH2) (Homo sapiens, UniProt P68431); test: as above
T5 construct: peptide consisting of residues 5-11 of histone 3 (H3 K9Men); made in house; host or cells: solid-phase chemical peptide synthesis
Experimental: as §1, §2, §3, §4

[6] = molecular target: T6, H3 K9Me (FAM-QTAR-KMe-STG-NH2) (Homo sapiens, UniProt P68431); test: as above; details: 27° C., 10 mM phosphate buffer pH 8.5; errors in parentheses
T6 construct: peptide consisting of residues 5-11 of histone 3 (H3 K9Men); made in house; host or cells: solid-phase chemical peptide synthesis
Experimental: as §1, §2, §3, §4

H3 K9Me3 R8G = molecular target: T7, H3 K9Me3 R8G (Homo sapiens, UniProt P68431, R9G); test: Fluorescence anisotropy binding to mutant H3 tail with Gly in place of Arg8; details: 27° C., 10 mM phosphate buffer pH 8.5; errors in parentheses
T7 construct: peptide consisting of residues 5-11 of histone 3 (H3 K9Men); made in house; host or cells: solid-phase chemical peptide synthesis
Experimental: FIG. 11. Fluorescence anisotropy of rac-A2B with H3 KMe3 where Arg8 has been mutated to Gly8 (10 mM sodium phosphate buffer pH 8.5).
as §3, §4

[7] = 26° C., 10 mM phosphate buffer pH 8.5, read-out: Kd by ITC, binding to KMe3

Structure (SMILES) | Binding to H3 tail with Lys9 mutated to Gly (in words) [1] | Amplification in templated DCL, KMe3 guest (Ac-KMe3-G-NH2) | pKd [2, 7] | pKd [3] | pKd [4] | Affinity for H3 K9Me3 peptide (in words) [4] | pKd ([5]; 27° C., 10 mM phosphate buffer pH 8.5) | Binding to the unmethylated histone tail (in words) ([5]; fluorescence anisotropy) | pKd [6] | pKd (H3 K9Me3 R8G) | pKd ([2]; titration of WGGG-GKMe3 into receptor, read-out: Kd by ITC, binding to KMe3 (unit inferred))
O=C(O)C1=C(C(=O)O)C2c3ccc4cc3C1c1ccc(cc12)SSc1ccc2c(c1)C1C(C(=O)O)=C(C(=O)O)C2c2cc(ccc21)SSc1cc(cc(C(=O)O)c1)SS4 (racemic) [rac-A2B] | total loss of binding | approximately 10 fold | 4.70 | 4.24 | 4.60 | low micromolar affinity | < 2.92 | no appreciable binding | 3.78 | 4.47 | 
O=C(O)C1=C(C(=O)O)[C@@H]2c3ccc4cc3[C@H]1c1ccc(cc12)SSc1ccc2c(c1)[C@H]1C(C(=O)O)=C(C(=O)O)[C@@H]2c2cc(ccc21)SSc1cc(cc(C(=O)O)c1)SS4 [meso-A2B] |  | approximately 10 fold | 4.89 | 4.14 | 4.55 | low micromolar affinity |  |  |  |  | 4.89
